Reference: patent publication US10722484B2, “Methods of cancer treatment” (K-Gen, Inc., priority 2016, dated 2020)
Like-named read-outs stand apart in the source and are kept apart here.

Legend:
Test in all cases: Proliferation assay (CellTiter Glo)
[1] = system: THP1; type: cell-based, human; conditions: 96 hours; for EC50: Homo sapiens, THP-1; for Top Inhibition %: % of top inhibition
Method: (§1) The dose range for most compounds was 4.6 nM-30 μM. The dose ranges for some compounds were adjusted downward to 0.46 nM-3 μM or 0.08 nM-0.5 μM or 0.03 nM-0.2 μM. […] The results are shown in Tables 3-6 for pancreatic cancer, lung cancer, colon/gastric cancer, and leukemia.

[2] = system: HL60; type: cell-based, human; conditions: 96 hours; for Top Inhibition %: % of top inhibition; for EC50: Homo sapiens, HL-60
Method: as §1

[3] = system: Pan2.03; type: cell-based; conditions: 96 hours; for Top Inhibition %: % of top inhibition
Method: as §1

[4] = system: Pan2.13; type: cell-based; conditions: 96 hours; for Top Inhibition %: % of top inhibition
Method: as §1

[5] = system: H358; type: cell-based; conditions: HE58, 96 hours; for Top Inhibition %: % of top inhibition; for EC50: Homo sapiens, NCI-H358
Method: as §1

[6] = system: HCT116; type: cell-based; conditions: 96 hours; for Top Inhibition %: % of top inhibition; for EC50: Homo sapiens, HCT-116
Method: as §1

[7] = system: Capan-1; type: cell-based; conditions: 96 hours; for Top Inhibition %: % of top inhibition; for EC50: Homo sapiens
Method: as §1

[8] = system: AsPC-1; type: cell-based; conditions: 96 hours; for Top Inhibition %: % of top inhibition; for EC50: Homo sapiens, ASPC1
Method: as §1

[9] = system: AGS; type: cell-based; conditions: 96 hours; for Top Inhibition %: % of top inhibition; for EC50: Homo sapiens
Method: as §1

[10] = system: LS180; type: cell-based; conditions: 96 hours; for EC50: Homo sapiens; for Top Inhibition %: % of top inhibition
Method: as §1

[11] = system: SW620; type: cell-based; conditions: 96 hours; for EC50: Homo sapiens, SW-620; for Top Inhibition %: % of top inhibition
Method: as §1

[12] = system: H441; type: cell-based; conditions: 96 hours; for Top Inhibition %: % of top inhibition; for EC50: Homo sapiens, NCI-H441
Method: as §1

[13] = system: KP-4; type: cell-based; conditions: 96 hours; for EC50: Homo sapiens; for Top Inhibition %: % of top inhibition
Method: as §1

[14] = system: H727; type: cell-based; conditions: 96 hours; for Top Inhibition %: % of top inhibition; for EC50: Homo sapiens, NCI-H727
Method: as §1

[15] = system: A549; type: cell-based; conditions: 96 hours; for Top Inhibition %: % of top inhibition; for EC50: Homo sapiens
Method: as §1

[16] = system: CCRF-CEM; type: cell-based; conditions: 96 hours; for Top Inhibition %: % of top inhibition; for EC50: Homo sapiens
Method: as §1

[17] = system: RPMI8226; type: cell-based; conditions: RPM18226; 96 hours
[18] = system: H1915; type: cell-based; conditions: H1915 (RAS WT); 96 hours
[19] = system: SW900; type: cell-based; conditions: SW900 (K-RAS: G12V); 96 hours
[20] = system: H838; type: cell-based; conditions: H838 (RAS WT); 96 hours
[21] = system: Colo205; type: cell-based; conditions: Colo205 (RAS WT); 96 hours
[22] = system: BxPC-3; type: cell-based; conditions: BxPC-3 (RAS WT); 96 hours
[23] = system: HT29; type: cell-based; conditions: HT29 (RAS WT); 96 hours
[24] = system: MiaPaCa-2; type: cell-based; conditions: 96 hours; for EC50: Homo sapiens, MIA PaCa-2
[25] = THP1 (N-RAS: G12D), absolute EC50, read-out: Ab EC50
[26] = THP1, relative EC50, read-out: Re EC50
[27] = HL60 (N-RAS: Q61L), absolute EC50, read-out: Ab EC50
[28] = HL60, relative EC50, read-out: Re EC50
[29] = Pan2.03 (K-RAS: G12D), absolute EC50, read-out: Ab EC50
[30] = Pan2.03, relative EC50, read-out: Re EC50
[31] = Pan2.13 (K-RAS: Q61H), absolute EC50, read-out: Ab EC50
[32] = Pan2.13, relative EC50, read-out: Re EC50
[33] = absolute EC50, read-out: Ab EC50
[34] = relative EC50, read-out: Re EC50
[35] = HCT116 (K-RAS: G13D), absolute EC50, read-out: Ab EC50
[36] = Capan-1 (K-RAS: G12V), absolute EC50, read-out: Ab EC50
[37] = Capan-1, relative EC50, read-out: Re EC50
[38] = AsPC-1 (K-RAS: G12D), absolute EC50, read-out: Ab EC50
[39] = AsPC-1, relative EC50, read-out: Re EC50
[40] = AGS (gastric, K-RAS: G12D), absolute EC50, read-out: Ab EC50
[41] = AGS, relative EC50, read-out: Re EC50
[42] = LS180 (K-RAS: G12D), absolute EC50, read-out: Ab EC50
[43] = SW620 (K-RAS: G12V), absolute EC50, read-out: Ab EC50
[44] = H441 (K-RAS: G12V), absolute EC50, read-out: Ab EC50
[45] = H441, relative EC50, read-out: Re EC50
[46] = KP-4 (K-RAS: G12C), absolute EC50, read-out: Ab EC50
[47] = KP-4, relative EC50, read-out: Re EC50
[48] = H727 (K-RAS: G12V), absolute EC50, read-out: Ab EC50
[49] = H727, relative EC50, read-out: Re EC50
[50] = A549 (K-RAS: G12S), absolute EC50, read-out: Ab EC50
[51] = A549, relative EC50, read-out: Re EC50
[52] = CCRF-CEM (K-RAS: G12D), absolute EC50, read-out: Ab EC50
[53] = CCRF-CEM, relative EC50, read-out: Re EC50
[54] = MiaPaCa-2 (K-RAS: G12C), absolute EC50, read-out: Ab EC50
[55] = MiaPaCa-2, relative EC50, read-out: Re EC50

CC(=O)O[C@H]1C(=O)[C@@]2(C)[C@H]([C@H](OC(=O)c3ccccc3)[C@]3(O)C[C@H](OC(=O)[C@H](O)[C@@H](NC(=O)c4ccccc4)c4ccccc4)C(C)=C1C3(C)C)[C@]1(OC(C)=O)CO[C@@H]1C[C@@H]2O [Paclitaxel]
EC50 [1, 25]: 8.3 nM
EC50 [1, 26]: 7.6 nM
Top Inhibition % ([1]; THP1): 91.2%
Top Inhibition % ([2]; HL60): 98.7%
EC50 [2, 27]: 5.2 nM
EC50 [2, 28]: 5.2 nM
EC50 [3, 29]: 3.3 nM
Top Inhibition % ([3]; Pan2.03): 64.7%
EC50 [3, 30]: 1.8 nM
EC50 [4, 31]: 65 nM
Top Inhibition % ([4]; Pan2.13): 53.2%
EC50 [4, 32]: 2.7 nM
Top Inhibition % [5]: 89.2%
EC50 [5, 33]: 2.4 nM
EC50 [5, 34]: 1.8 nM
Top Inhibition % ([6]; HCT116): 94.8%
EC50 [6, 35]: 2.2 nM
EC50 ([6]; HCT116, relative EC50, read-out: Re EC50): 2.1 nM
Top Inhibition % ([7]; Capan-1): 73.5%
EC50 [7, 36]: 11 nM
EC50 [7, 37]: 7.2 nM
Top Inhibition % ([8]; AsPC-1): 60.9%
EC50 [8, 38]: 10 nM
EC50 [8, 39]: 3.8 nM
Top Inhibition % ([9]; AGS): 87.7%
EC50 [9, 40]: 4.7 nM
EC50 [9, 41]: 3.9 nM
EC50 [10, 42]: 14 nM
EC50 ([10]; LS180, relative EC50, read-out: Re EC50): 8.8 nM
Top Inhibition % ([10]; LS180): 67.1%
EC50 [11, 43]: 12 nM
EC50 ([11]; SW620, relative EC50, read-out: Re EC50): 9.4 nM
Top Inhibition % ([11]; SW620): 92.1%
Top Inhibition % ([12]; H441): 51.9%
EC50 [12, 44]: 35.8 nM
EC50 [12, 45]: 3.5 nM
EC50 [13, 46]: 1.9 nM
EC50 [13, 47]: 1.8 nM
Top Inhibition % ([13]; KP-4): 96.2%
Top Inhibition % ([14]; H727): 49.0%
EC50 [14, 48]: > 500 nM
EC50 [14, 49]: 2.3 nM
Top Inhibition % ([15]; A549): 86.0%
EC50 [15, 50]: 2.6 nM
EC50 [15, 51]: 2.3 nM
Top Inhibition % ([16]; CCRF-CEM): 97.8%
EC50 [16, 52]: 4 nM
EC50 [16, 53]: 3.9 nM
Top Inhibition % [17]: 98.98%
Top Inhibition % [18]: 80.6%
Top Inhibition % [19]: 81.0%
Top Inhibition % [20]: 96.5%
Top Inhibition % [21]: 97.4%
Top Inhibition % [22]: 91.93%
Top Inhibition % [23]: 93.8%
EC50 [24, 54]: 3.4 nM
EC50 [24, 55]: 3.3 nM

CC(=O)O[C@@]12C[C@@H](C)[C@@]3(O)[C@@H](C=C(CO)C[C@]4(O)C(=O)C(C)=C[C@@H]34)[C@@H]1C2(C)C [Compound K101A, 12-deoxyphorbol 13-acetate]
EC50 [1, 25]: 870 nM
EC50 [1, 26]: 300 nM
Top Inhibition % ([1]; THP1): 51.8%
Top Inhibition % ([2]; HL60): 61.3%
EC50 [2, 27]: 470 nM
EC50 [2, 28]: 400 nM
EC50 [3, 29]: > 30000 nM
Top Inhibition % ([3]; Pan2.03): 27.0%
EC50 [3, 30]: 120 nM
EC50 [4, 31]: > 30000 nM
Top Inhibition % ([4]; Pan2.13): 43.4%
EC50 [4, 32]: 17 nM
Top Inhibition % [5]: 56.4%
EC50 [5, 33]: 4900 nM
EC50 [5, 34]: 160 nM
Top Inhibition % ([6]; HCT116): 17.4%
EC50 [6, 35]: > 30000 nM
Top Inhibition % ([7]; Capan-1): 37.1%
EC50 [7, 36]: > 30000 nM
EC50 [7, 37]: 310 nM
Top Inhibition % ([8]; AsPC-1): 32.4%
EC50 [8, 38]: > 30000 nM
EC50 [8, 39]: 270 nM
Top Inhibition % ([9]; AGS): 21.7%
EC50 [9, 40]: > 30000 nM
EC50 [9, 41]: 490 nM
EC50 [10, 42]: > 30000 nM
Top Inhibition % ([10]; LS180): 4.4%
EC50 [11, 43]: > 30000 nM
Top Inhibition % ([11]; SW620): 0.0%
Top Inhibition % ([12]; H441): 42.1%
EC50 [12, 44]: > 30000 nM
EC50 [12, 45]: 320 nM
EC50 [13, 46]: 400 nM
EC50 [13, 47]: 190 nM
Top Inhibition % ([13]; KP-4): 63.3%
Top Inhibition % ([14]; H727): 48.3%
EC50 [14, 48]: > 30000 nM
EC50 [14, 49]: 190 nM
Top Inhibition % ([15]; A549): 76.0%
EC50 [15, 50]: 490 nM
EC50 [15, 51]: 270 nM
Top Inhibition % ([16]; CCRF-CEM): 35.9%
EC50 [16, 52]: > 30000 nM
EC50 [16, 53]: 51 nM
Top Inhibition % [17]: 32.39%
Top Inhibition % [18]: 27.7%
Top Inhibition % [19]: 7.1%
Top Inhibition % [20]: 10.1%
Top Inhibition % [21]: 83.6%
Top Inhibition % [22]: 40.11%
Top Inhibition % [23]: 12.8%
EC50 [24, 54]: 300 nM
EC50 [24, 55]: 180 nM
Top Inhibition % ([24]; MiaPaCa-2, % of top inhibition): 74.4%
